According to publication PMC4605326 (Nucleic Acids Research, 2015):

System: BsPif1
Settings: 50 nM enzyme; 67-mer ss oligonucleotide 25 μg/ml; 25 mM Tris-HCl pH 7.5, 50 mM NaCl, 2 mM MgCl2, 2 mM DTT; 37°C

Km: 0.2 µM
SMILES: Nc1ncnc2c1ncn2[C@@H]1O[C@H](COP(=O)(O)OP(=O)(O)OP(=O)(O)O)[C@@H](O)[C@H]1O [ATP]
